Some results are limits rather than exact numbers.

This assay addresses T1, recombinant human Myt1 (Homo sapiens, UniProt Q99640).
T1 construct: full length PKMYT1 recombinant human protein expressed in insect cells
T1 sequence (Q99640 1-499): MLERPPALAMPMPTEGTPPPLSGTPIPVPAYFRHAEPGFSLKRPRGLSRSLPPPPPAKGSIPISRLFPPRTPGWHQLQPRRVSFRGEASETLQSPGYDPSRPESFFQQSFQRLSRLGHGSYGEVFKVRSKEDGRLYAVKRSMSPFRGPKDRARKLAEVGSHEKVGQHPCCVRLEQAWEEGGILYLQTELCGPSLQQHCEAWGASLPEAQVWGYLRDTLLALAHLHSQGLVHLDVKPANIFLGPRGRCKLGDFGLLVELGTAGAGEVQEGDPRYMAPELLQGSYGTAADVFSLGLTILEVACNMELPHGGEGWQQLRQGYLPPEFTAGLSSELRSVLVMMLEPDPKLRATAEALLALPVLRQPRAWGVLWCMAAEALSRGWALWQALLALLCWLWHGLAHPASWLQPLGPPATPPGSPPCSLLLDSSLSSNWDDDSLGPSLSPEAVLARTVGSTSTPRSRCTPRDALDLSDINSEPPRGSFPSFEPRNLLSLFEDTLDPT
Briefly: Myt1 enzymatic assay (ADP-Glo kinase assay, IC50 and % max inhibition). To be noted: recombinant human Myt1 18 nM, ATP 10 μM. It is filed as biochemical. In short, it runs like this:
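Compounds (0.5% DMSO) preincubated with recombinant human Myt1 for 15 min at 22° C, then ATP added and reaction run 60 min at 30° C.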
(In general: In ADP-Glo the light output rises with the ADP produced.)
Regarding `C=C(C)c1cnc2c(n1)c(C(N)=O)c(N)n2-c1c(C)ccc(O)c1C` [Compound 202], the IC50 was under 10 nM.
In the case of `Cc1ccc(O)c(C)c1-n1c(N)c(C(N)=O)c2nc(OC3CC3)cnc21` [Compound 260, 6-amino-2-(cyclopropoxy)-5-(3-hydroxy-2,6-dimethyl-phenyl)pyrrolo[2,3-b]pyrazine-7-carboxamide], the concentration for half-maximal inhibition (IC50) worked out at 27 nM.
Take `Cc1ccc(O)c(C)c1-n1c(N)c(C(N)=O)c2nccnc21` [Compound 147]: the IC50 was determined as 55 nM.
Take `Cc1ccc(O)cc1-n1c(N)c(C(N)=O)c2ncc(C#Cc3ccccn3)nc21` [Compound 158]: the half-maximal inhibitory concentration (IC50) amounted to 953 nM.
Turning to `Cc1ccc(O)c(Cl)c1-n1c(N)c(C(N)=O)c2cc(Cl)cnc21` [Compound 327], the IC50 is under 10 nM.
Consider `Cc1ccc(O)c(C)c1-n1c(N)c(C(N)=O)c2cc(C(C)(C)O)cnc21` [Compound 131], for which the IC50 is under 10 nM.
For `Cc1ccc(O)cc1-n1c(N)c(C(N)=O)c2nc(-c3ccc(N4CCOCC4)nc3)ccc21` [Compound 7], the half-maximal inhibitory concentration (IC50) came out at 605 nM.
For `Cc1ccc(O)c(C)c1-n1c(N)c(C(N)=O)c2nc(-c3nc4ccccc4s3)cnc21` [Compound 248], the IC50 is under 10 nM.
Turning to `Cc1ccc(O)c(C)c1-n1c(N)c(C(N)=O)c2cc(Br)c(C)nc21` [Compound 187], the 50% inhibitory concentration (IC50) is under 10 nM.
In the case of `Cc1ccc(O)c(C)c1-n1c(N)c(C(N)=O)c2ncc(C#C[C@H](C)O)nc21` [Compound 229], the IC50 was 52 nM.
The figure for `Cc1ccc(O)cc1-n1c(N)c(C(N)=O)c2ncc(OCCN3CCOCC3)nc21` [Compound 154] is 6350 nM; for `Cc1ccc(O)c(C)c1-n1c(N)c(C(N)=O)c2ncc(C#C[C@@H]3OCC[C@@H]3Cl)nc21` [Compound 233] it is 10 nM; for `Cc1ccc(O)cc1-n1c(N)c(C(N)=O)c2ncc(OCc3ccccc3)nc21` [Compound 151] it is 2750 nM.
The figure for `Cc1ccc(O)c(C)c1-n1c(N)c(C(N)=O)c2nc(C3CC3)c(C3CC3)nc21` [Compound 256] is 50 nM; for `Cc1ccc(O)cc1-n1c(N)c(C(N)=O)c2ncc(OCc3cccnc3)nc21` [Compound 153, 6-amino-5-(5-hydroxy-2-methyl-phenyl)-3-(3-pyridylmethoxy)pyrrolo[2,3-b]pyrazine-7-carboxamide] it is 3550 nM; for `Cc1ccc(O)cc1-n1c(N)c(C(N)=O)c2ncc(CCc3cccnc3)nc21` [Compound 162, 6-amino-5-(5-hydroxy-2-methyl-phenyl)-3-[2-(3-pyridyl)ethyl]pyrrolo[2,3-b]pyrazine-7-carboxamide] it is 596 nM.
For `Cc1ccc(O)cc1-n1c(N)c(C(N)=O)c2nc(-c3ccc(C(=O)O)cc3)ccc21` [Compound 10], the IC50 was 187 nM.
In the case of `CC(=O)N1CCN(c2cnc3c(n2)c(C(N)=O)c(N)n3-c2c(C)ccc(O)c2C)CC1` [Compound 87], the 50% inhibitory concentration (IC50) is under 10 nM.
Regarding `Cc1ccc(O)c(C)c1-n1c(N)c(C(N)=O)c2nc(C#CC3CCNC3)cnc21` (stereo not drawn) [Compound 279], the IC50 was determined as 250 nM.
The figure for `Cc1ccc(O)cc1-n1c(N)c(C(N)=O)c2ncc(-c3cn[nH]c3)nc21` [Compound 155] is 1020 nM; for `Cc1ccc(O)c(Br)c1-n1c(N)c(C(N)=O)c2cc(Cl)cnc21` [Compound 289] it is under 10 nM; for `Cc1ccc(O)cc1-n1c(N)c(C(N)=O)c2ncc(-c3ccccc3)nc21` [Compound 150, 6-amino-5-(5-hydroxy-2-methyl-phenyl)-3-phenyl-pyrrolo[2,3-b]pyrazine-7-carboxamide] it is 1350 nM.
`Cc1ccc(O)c(C)c1-n1c(N)c(C(N)=O)c2ncc(C#CCC3CCOCC3)nc21` [Compound 222]: the concentration for half-maximal inhibition (IC50) is under 10 nM.
In the case of `Cc1ccc(O)c(C)c1-n1c(N)c(C(N)=O)c2nc(-c3ccccn3)cnc21` [Compound 34], the IC50 is under 10 nM.
The result for `Cc1ccc(O)cc1-n1c(N)c(C(N)=O)c2nc(-c3ccc(N)nc3)ccc21` [Compound 8] reads 164 nM; that for `Cc1ccc(O)c(C)c1-n1c(N)c(C(N)=O)c2nc(C#CC(=O)Nc3ccc(F)cc3)cnc21` [Compound 283], 32 nM.
Consider `Cc1ccc(O)c(C)c1-n1c(N)c(C(N)=O)c2cc(C(F)(F)F)cnc21` [Compound 221, 2-amino-1-(3-hydroxy-2,6-dimethyl-phenyl)-5-(trifluoromethyl)pyrrolo[2,3-b]pyridine-3-carboxamide], for which the IC50 worked out at 81 nM.
With `Cc1ccc(O)c(C)c1-n1c(N)c(C(N)=O)c2ncc(C#C[C@@H]3COC[C@H]3O)nc21` [Compound 234], the IC50 is 14 nM.
For `Cc1ccc(O)c(C)c1-n1c(N)c(C(N)=O)c2nc(C(C)(C)F)cnc21` [Compound 178, 6-amino-2-(1-fluoro-1-methyl-ethyl)-5-(3-hydroxy-2,6-dimethyl-phenyl)pyrrolo[2,3-b]pyrazine-7-carboxamide], the IC50 is under 10 nM.
On to `Cc1ccc(O)cc1-n1c(N)c(C(N)=O)c2nc(OCc3ccccc3)cnc21` [Compound 281], for which the concentration for half-maximal inhibition (IC50) was 784 nM.

Broadly, the IC50 is the point on the concentration scale where inhibition reaches its midpoint.
